Patent US12509469B2, “Compositions and methods for the treatment of pain and dependence disorders” (Ripple Therapeutics Corporation, priority 2019, dated 2025)

Legend:
[1] = Drug release from heat-molded pellets in phosphate buffered saline (PBS); assay type: physicochemical; conditions: heat-molded pellet, 37° C., agitation at 115 rpm, HPLC
Description: (§1) Drug release from heat-molded pellets of Compound 1 (FIG. 1A) was assessed in phosphate buffered saline (PBS). Heat-molded pellets (FIG. 1B) were placed in 20 ml glass vials and 2 ml of release buffer was added. Samples were incubated at 37° C. with constant agitation at 115 rpm. Release buffer was sampled and fully replaced with 2 ml of fresh buffer daily with the exception of days 5, 6, 12, 13, and 14 (FIG. 1C). Samples were analyzed by high performance liquid chromatography (HPLC) to quantify drug products (FIG. 1D). Cumulative release was calculated as a percentage of total mass of starting pellets and was plotted over time.
as §1, with “3-7 and Compound 9-12 were” for “1 (FIG. 1A) was”, “pellets” for “pellets (FIG. 1B)”, “on” for “daily with the exception of”, “1, 3, 7, 10,” for “5, 6, 12, 13,”, “14.” for “14 (FIG. 1C).”, “products.” for “products (FIG. 1D).”

[2] = Heat processing of compounds: pellet formation by heat molding; assay type: physicochemical; conditions: for Pellet formation?: heat molding, cylindrical mold ~1 mm in height x 1 mm in diameter; for Pellet formation by heat molding (result in words): heat molding 10° C. to 30° C. above thermal transition, pressed into cylindrical mold
Description: Compounds were formed into pellets by heat molding. Powders of Compound 1-7 and Compounds 9-12 were processed at a temperature from between about 10° C. to 30° C. above their thermal transitions (e.g., glass transition temperature (Tg) for amorphous powders or melting point (Tm) for crystalline powders) of the given compound (e.g., from about 70° C. (Compound 9) to about 220° C. (Compound 2)), and pressed into a cylindrical mold of ˜1 mm in height×1 mm in diameter. Light microscopy was used to capture images of the heat-formed pellets.
These pellets had the appropriate processing properties to be tested as articles for drug delivery applications.
Compounds 16, 22, and 23 were also tested for pellet formation using a similar method as compounds 1-7 and 9-12. […] The recovered form was soft and tacky and could not be easily handled.

Compound	Release in phosphate buffered saline (PBS): near zero order for [1]	Pellet formation? [2]	Pellet formation by heat molding (result in words) [2]
O=C(OCCCCCCOC(=O)Oc1ccc2c3c1O[C@H]1C(=O)CC[C@@]4(O)[C@@H](C2)N(CC2CC2)CC[C@]314)Oc1ccc2c3c1O[C@H]1C(=O)CC[C@@]4(O)[C@@H](C2)N(CC2CC2)CC[C@]314 [Compound 11, bis((4R,4aS,7aR,12bS)-3-(cyclopropylmethyl)-4a-hydroxy-7-oxo-2,3,4,4a,5,6,7,7a-octohydro-1H-4,12-methanobenzofuro[3,2-e]isoquinolin-9-yl) hexane-1,6-diyl bis(carbonate)]	Near zero order for > 7 days	✓ (FIG. 12B)	–
CCC(C)(CC(=O)Oc1ccc2c3c1O[C@H]1C(=O)CC[C@@]4(O)[C@@H](C2)N(CC2CC2)CC[C@]314)CC(=O)Oc1ccc2c3c1O[C@H]1C(=O)CC[C@@]4(O)[C@@H](C2)N(CC2CC2)CC[C@]314 [Compound 10, bis((4R,4aS,7aR,12bS)-3-(cyclopropylmethyl)-4a-hydroxy-7-oxo-2,3,4,4a,5,6,7,7a-octohydro-1H-4,12-methanobenzofuro[3,2-e]isoquinolin-9-yl) 3-ethyl-3-methylpentonedioate]	Near zero order for > 7 days	✓ (FIG. 11B)	–
O=C(CCCCCCCCC(=O)Oc1ccc2c3c1O[C@H]1C(=O)CC[C@@]4(O)[C@@H](C2)N(CC2CC2)CC[C@]314)Oc1ccc2c3c1O[C@H]1C(=O)CC[C@@]4(O)[C@@H](C2)N(CC2CC2)CC[C@]314 [Compound 6, bis((4R,4aS,7aR,12bS)-3-(cyclopropylmethyl)-4a-hydroxy-7-oxo-2,3,4,4a,5,6,7,7a-octahydro-1H-4,12-methanobenzofuro[3,2-e]isoquinolin-9-yl) decanedioate]	Near zero order for > 7 days	✓ (FIG. 7B)	–
O=C(OCC1CCC(COC(=O)Oc2ccc3c4c2O[C@H]2C(=O)CC[C@@]5(O)[C@@H](C3)N(CC3CC3)CC[C@]425)CC1)Oc1ccc2c3c1O[C@H]1C(=O)CC[C@@]4(O)[C@@H](C2)N(CC2CC2)CC[C@]314 (stereo partly drawn) [Compound 12, cyclohexane-1,4-diylbis(methylene) bis((4R,4aS,7aR,12bS)-3-(cyclopropylmethyl)-4a-hydroxy-7-oxo-2,3,4,4a,5,6,7,7a-octohydro-1H-4,12-methanobenzofuro[3,2-e]isoquinolin-9-yl) bis(carbonate)]	Near zero order for > 7 days	–	–
O=C(Oc1ccc2c3c1O[C@H]1C(=O)CC[C@@]4(O)[C@@H](C2)N(CC2CC2)CC[C@]314)c1ccc(C(=O)Oc2ccc3c4c2O[C@H]2C(=O)CC[C@@]5(O)[C@@H](C3)N(CC3CC3)CC[C@]425)cc1 [Compound 8, bis((4R,4aS,7aR,12bS)-3-(cyclopropylmethyl)-4a-hydroxy-7-oxo-2,3,4,4a,5,6,7,7a-octahydro-1H-4,12-methanobenzofuro[3,2-e]isoquinolin-9-yl) terephthalate]	–	–	did not form a heat processed pellet
C=CCN1CC[C@]23c4c5ccc(OC(=O)CCCCC(=O)Oc6ccc7c8c6O[C@H]6C(=O)CC[C@@]9(O)[C@@H](C7)N(CC=C)CC[C@]869)c4O[C@H]2C(=O)CC[C@@]3(O)[C@H]1C5 [Compound 1, bis((4R,4aS,7aR,12bS)-3-allyl-4a-hydroxy-7-oxo-2,3,4,4a,5,6,7,7a-octahydro-1H-4,12-methanobenzofuro[3,2-e]isoquinolin-9-yl) adipate]	Near zero order for > 7 days	✓ (FIG. 1B)	–
O=C(Oc1ccc2c3c1O[C@H]1C(=O)CC[C@@]4(O)[C@@H](C2)N(CC2CC2)CC[C@]314)C1CCC(C(=O)Oc2ccc3c4c2O[C@H]2C(=O)CC[C@@]5(O)[C@@H](C3)N(CC3CC3)CC[C@]425)CC1 (stereo partly drawn) [Compound 7, bis((4R,4aS,7aR,12bS)-3-(cyclopropylmethyl)-4a-hydroxy-7-oxo-2,3,4,4a,5,6,7,7a-octahydro-1H-4,12-methanobenzofuro[3,2-e]isoquinolin-9-yl) cyclohexane-1,4-dicarboxylate]	Near zero order for > 7 days	–	–
O=C(CCCCCCCCCCCCC(=O)Oc1ccc2c3c1O[C@H]1C(=O)CC[C@@]4(O)[C@@H](C2)N(CC2CC2)CC[C@]314)Oc1ccc2c3c1O[C@H]1C(=O)CC[C@@]4(O)[C@@H](C2)N(CC2CC2)CC[C@]314 [Compound 9, bis((4R,4aS,7aR,12bS)-3-(cyclopropylmethyl)-4a-hydroxy-7-oxo-2,3,4,4a,5,6,7,7a-octahydro-1H-4,12-methanobenzofuro[3,2-e]isoquinolin-9-yl) tetradecanedioate]	Near zero order for > 7 days	✓ (FIG. 10B)	–
COc1ccc2cc([C@H](C)C(=O)OCC3CCC(COC(=O)[C@@H](C)c4ccc5cc(OC)ccc5c4)CC3)ccc2c1 (stereo partly drawn) [Compound 16, cyclohexane-1,4-diylbis(methylene) (2S,2S)-bis(2-(6-methoxynaphthalen-2-yl)proponoote)]	–	–	deformed during the process of removal from the mold
CCN[C@H]1C[C@H](C)S(=O)(=O)c2sc(S(=O)(=O)NC(=O)OCCCCCCCCOC(=O)NS(=O)(=O)c3cc4c(s3)S(=O)(=O)[C@@H](C)C[C@@H]4NCC)cc21 [Compound 22, 8-(((((4S,6S)-4-(ethylamino)-6-methyl-7,7-dioxido-5,6-dihydro-4H-thieno[2,3-b]thiopyron-2-yl)sulfonyl)carbamoyl)oxy)octyl (((4S,6S)-4-(ethylamino)-6-methyl-7,7-dioxido-5,6-dihydro-4H-thieno[2,3-b]thiopyron-2-yl)sulfonyl)carbomate]	–	–	Neither compound formed a viscous liquid that could be pressed into a pellet
O=C(CCCCC(=O)Oc1ccc2c3c1O[C@H]1C(=O)CC[C@@]4(O)[C@@H](C2)N(CC2CC2)CC[C@]314)Oc1ccc2c3c1O[C@H]1C(=O)CC[C@@]4(O)[C@@H](C2)N(CC2CC2)CC[C@]314 [Compound 2, bis((4R,4aS,7aR,12bS)-3-(cyclopropylmethyl)-4a-hydroxy-7-oxo-2,3,4,4a,5,6,7,7a-octahydro-1H-4,12-methanobenzofuro[3,2-e]isoquinolin-9-yl) adipate]	–	–	didn't form a viscous liquid that could be pressed into a pellet
C=CCN1CC[C@]23c4c5ccc(OC(=O)CCCCCCCCC(=O)Oc6ccc7c8c6O[C@H]6C(=O)CC[C@@]9(O)[C@@H](C7)N(CC=C)CC[C@]869)c4O[C@H]2C(=O)CC[C@@]3(O)[C@H]1C5 [Compound 4, bis((4R,4aS,7aR,12bS)-3-allyl-4a-hydroxy-7-oxo-2,3,4,4a,5,6,7,7a-octahydro-1H-4,12-methanobenzofuro[3,2-e]isoquinolin-9-yl) decanedioate]	Near zero order for > 7 days	✓ (FIG. 5B)	–
C=CCN1CC[C@]23c4c5ccc(OC(=O)OCC6CCC(COC(=O)Oc7ccc8c9c7O[C@H]7C(=O)CC[C@@]%10(O)[C@@H](C8)N(CC=C)CC[C@]97%10)CC6)c4O[C@H]2C(=O)CC[C@@]3(O)[C@H]1C5 (stereo partly drawn) [Compound 5, bis((4R,4aS,7aR,12bS)-3-allyl-4a-hydroxy-7-oxo-2,3,4,4a,5,6,7,7a-octahydro-1H-4,12-methanobenzofuro[3,2-e]isoquinolin-9-yl) (cyclohexane-1,4-diylbis(methylene)) bis(carbonate)]	Near zero order for > 7 days	–	–
C=C1CC[C@@]2(O)[C@H]3Cc4ccc(OC(=O)CCCCC(=O)Oc5ccc6c7c5O[C@H]5C(=C)CC[C@@]8(O)[C@@H](C6)N(CC6CC6)CC[C@]758)c5c4[C@@]2(CCN3CC2CC2)[C@H]1O5 [Compound 3, bis((4R,4aS,7aS,12bS)-3-(cyclopropylmethyl)-4a-hydroxy-7-methylene-2,3,4,4a,5,6,7,7a-octohydro-1H-4,12-methanobenzofuro[3,2-e]isoquinolin-9-yl) adipate]	Near zero order for > 7 days	✓ (FIG. 4B)	–
